Laboratory results taken from US20220242870A1, “HETEROCYCLE-FUSED PYRIMIDINE DERIVATIVE AND USE THEREOF” (VORONOI Inc., priority 2019, published 2022).

Target: T1, human FLT3-ITD enzyme (Homo sapiens, UniProt P36888)
T1 sequence (P36888 1-993): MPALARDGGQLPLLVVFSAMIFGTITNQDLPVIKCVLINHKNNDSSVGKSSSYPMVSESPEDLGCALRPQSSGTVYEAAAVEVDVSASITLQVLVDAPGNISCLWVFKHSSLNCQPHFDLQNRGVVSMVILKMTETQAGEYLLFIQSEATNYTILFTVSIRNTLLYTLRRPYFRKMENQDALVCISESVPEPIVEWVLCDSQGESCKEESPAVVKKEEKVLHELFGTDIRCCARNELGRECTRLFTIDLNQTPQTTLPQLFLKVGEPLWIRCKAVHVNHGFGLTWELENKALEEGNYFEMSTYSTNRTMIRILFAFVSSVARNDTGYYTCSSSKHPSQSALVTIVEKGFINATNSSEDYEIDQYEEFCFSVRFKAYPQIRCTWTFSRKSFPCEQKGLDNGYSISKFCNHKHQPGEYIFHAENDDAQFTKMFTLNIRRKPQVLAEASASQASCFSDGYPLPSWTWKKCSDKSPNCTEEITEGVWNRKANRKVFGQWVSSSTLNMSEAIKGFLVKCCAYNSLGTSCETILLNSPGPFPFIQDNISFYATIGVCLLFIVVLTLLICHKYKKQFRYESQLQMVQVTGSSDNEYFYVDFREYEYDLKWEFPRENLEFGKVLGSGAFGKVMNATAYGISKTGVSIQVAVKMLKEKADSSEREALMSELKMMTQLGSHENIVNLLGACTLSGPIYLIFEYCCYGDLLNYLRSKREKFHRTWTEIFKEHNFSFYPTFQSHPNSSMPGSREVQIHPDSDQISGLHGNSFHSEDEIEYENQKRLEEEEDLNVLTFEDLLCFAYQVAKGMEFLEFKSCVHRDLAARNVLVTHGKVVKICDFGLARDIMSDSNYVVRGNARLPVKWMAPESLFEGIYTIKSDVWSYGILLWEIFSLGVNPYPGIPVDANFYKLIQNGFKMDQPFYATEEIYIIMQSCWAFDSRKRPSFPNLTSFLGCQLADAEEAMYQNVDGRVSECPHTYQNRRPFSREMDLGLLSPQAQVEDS
Assay: FLT3 enzyme inhibitory ability (ADP-Glo kinase assay)
Type: biochemical
Settings: human FLT3-ITD enzyme 10 ng, ATP 10 μM, 25° C. 1 hour
Experimental: The inhibitory activities of the example compounds according to the present invention to the FLT3-ITD enzyme were evaluated. Specifically, the compound of the present invention was reacted with a purified human FLT3-ITD enzyme (Signalchem). A composition of 40 mM Tris-HCl pH 7.4, 20 mM MgCl2, 0.5 mg/mL BSA and 50 μM DTT was used as a reaction buffer, and reactions of all test matters were performed on the reaction buffer. Upon the test, human FLT3-ITD enzyme (10 ng), purified ATP (10 μM) and a specific substrate solution were reacted at 25° C. for 1 hour, and then the enzyme activity was identified using an in vitro ADP-Glo™ kinase assay (Promega). The enzyme activity reaction solution, the ADP-Glo reaction solution and the enzyme ability detection solution were reacted in a ratio of 2:2:1, and the activity inhibition degree of the enzyme was measured as luminescence. Using the solvent-treated group that was not treated with the compound as a control group, the enzyme activity inhibition degree according to the treatment concentration of each compound was calculated based on the enzyme activity fluorescence degree, and the concentration of each compound that inhibited 50%, IC50 (nM), was determined using Prism Software (version 5.01, GraphPad).

Row | IC50 [nM] | Structure (SMILES)
1 | > 500 | CN1CCN(Cc2ccc(Nc3nc(N4N=CCC4c4ccccc4)c4sccc4n3)cc2C(F)(F)F)CC1 (stereo not shown) [Example 54, N-(4-((4-methylpiperazin-1-yl)methyl)-3-(trifluoromethyl)phenyl)-4-(5-phenyl-4,5-dihydro-1H-pyrazol-1-yl)thieno[3,2-d]pyrimidin-2-amine]
2 | > 500 | CN1CCN(C2CCN(c3c(F)cc(Nc4nc(N5N=CCC5c5ccccc5)c5sccc5n4)cc3F)CC2)CC1 (stereo not shown) [Example 55, N-(3,5-difluoro-4-(4-(4-methylpiperazin-1-yl)piperidin-1-yl)phenyl)-4-(5-phenyl-4,5-dihydro-1H-pyrazol-1-yl)thieno[3,2-d]pyrimidin-2-amine]
3 | > 500 | CCN1CCN(c2c(F)cc(Nc3nc(N4N=CCC4c4ccccc4)c4sccc4n3)cc2F)CC1 (stereo not shown) [Example 56, N-(4-(4-ethylpiperazin-1-yl)-3,5-difluorophenyl)-4-(5-phenyl-4,5-dihydro-1H-pyrazol-1-yl)thieno[3,2-d]pyrimidin-2-amine]

The remaining lines, values behind:

Row | Structure (SMILES) | IC50 [nM]
4 | COc1cc(-c2cnn(C)c2)ccc1Nc1nc(N2N=CCC2c2ccccc2)c2sccc2n1 (stereo not shown) [Example 42, N-(2-methoxy-4-(1-methyl-1H-pyrazol-4-yl)phenyl)-4-(5-phenyl-4,5-dihydro-1H-pyrazol-1-yl)thieno[3,2-d]pyrimidin-2-amine] | > 500
5 | Cc1cc(Nc2nc(N3N=CCC3c3ccccc3)c3sccc3n2)cc(C)c1OCCCN1CCCC1 (stereo not shown) [Example 49, N-(3,5-dimethyl-4-(3-(pyrrolidin-1-yl)propoxy)phenyl)-4-(5-phenyl-4,5-dihydro-1H-pyrazol-1-yl)thieno[3,2-d]pyrimidin-2-amine] | > 500
6 | Cc1cc(Nc2nc(N3N=CCC3c3ccccc3)c3sccc3n2)cc(C)c1OCCCN1CCN(C)CC1 (stereo not shown) [Example 50, N-(3,5-dimethyl-4-(3-(4-methylpiperazin-1-yl)propoxy)phenyl)-4-(5-phenyl-4,5-dihydro-1H-pyrazol-1-yl)thieno[3,2-d]pyrimidin-2-amine] | > 500
7 | CN1CCN(c2ccc(Nc3nc(N4N=CCC4c4ccccc4)c4sccc4n3)cc2C(F)(F)F)CC1 (stereo not shown) [Example 53, N-(4-(4-methylpiperazin-1-yl)-3-(trifluoromethyl)phenyl)-4-(5-phenyl-4,5-dihydro-1H-pyrazol-1-yl)thieno[3,2-d]pyrimidin-2-amine] | > 500
